Source: ChEMBL document CHEMBL2074246, “Distinct groups of multidrug resistance modulating agents are distinguished by competition of P-glycoprotein-specific antibodies” (Biochem Biophys Res Commun, 2004)
*1 amine or outer side, *2 acyl side, *3 side chain or, on linkers, in order; H or OH if unused. Where a SMILES comes first, the peptide text is derived from it. Bridges are numbered along the chain shown (N, C = ends). Roman numbers before positions name the chains, in order. [ ]: non-standard residue; d: D form. The star is where a group is joined. Actinocin(9to1) = Cc1c2oc3c(C)ccc(C(=O)[*:1])c3nc-2c(C(=O)[*:2])c(N)c1=O; NMeV = CN[C@H](C(=O)O)C(C)C; NHCH2CH2OH = OCCN*; Sar = CNCC(=O)O; For = O=C*

Key:
Format in all cases: functional, cell-based
[1] = target: T1, ATP-dependent translocase ABCB1 (Homo sapiens, UniProt P08183); test: TP_TRANSPORTER: increase in Calcein-AM intracellular accumulation (Calcein-AM: 0.5 uM, Quinine: 20 uM) in MDR1-expressing NIH-3T3 cells; conditions: mouse, nih3t3, 20 µM
[2] = target: T1, ATP-dependent translocase ABCB1; test: TP_TRANSPORTER: increase in Calcein-AM intracellular accumulation (Calcein-AM: 0.5 uM, Benzocaine: 20 uM) in MDR1-expressing NIH-3T3 cells; conditions: mouse, nih3t3, 20 µM
[3] = target: T1, ATP-dependent translocase ABCB1; test: TP_TRANSPORTER: increase in Calcein-AM intracellular accumulation (Calcein-AM: 0.5 uM, Tetracaine: 320 uM) in MDR1-expressing NIH-3T3 cells; conditions: mouse, nih3t3, 320 µM
[4] = target: T1, ATP-dependent translocase ABCB1; test: TP_TRANSPORTER: increase in Calcein-AM intracellular accumulation (Calcein-AM: 0.5 uM, Galangin: 50 uM) in MDR1-expressing NIH-3T3 cells; conditions: mouse, nih3t3, 50 µM
[5] = target: T1, ATP-dependent translocase ABCB1; test: TP_TRANSPORTER: increase in Calcein-AM intracellular accumulation (Calcein-AM: 0.5 uM, Gramicidin D: 10 uM) in MDR1-expressing NIH-3T3 cells; conditions: mouse, nih3t3, 10 µM
[6] = target: T1, ATP-dependent translocase ABCB1; test: TP_TRANSPORTER: increase in Calcein-AM intracellular accumulation (Calcein-AM: 0.5 uM, Propranolol: 500 uM) in MDR1-expressing NIH-3T3 cells; conditions: mouse, nih3t3, 500 µM
[7] = target: T1, ATP-dependent translocase ABCB1; test: TP_TRANSPORTER: increase in Calcein-AM intracellular accumulation (Calcein-AM: 0.5 uM, Valinomycin: 10 uM) in MDR1-expressing NIH-3T3 cells; conditions: mouse, nih3t3, 10 µM
[8] = target: T1, ATP-dependent translocase ABCB1; test: TP_TRANSPORTER: increase in Calcein-AM intracellular accumulation (Calcein-AM: 0.5 uM, Prednisone: 200 uM) in MDR1-expressing NIH-3T3 cells; conditions: mouse, nih3t3, 200 µM
[9] = target: T1, ATP-dependent translocase ABCB1; test: TP_TRANSPORTER: increase in Calcein-AM intracellular accumulation (Calcein-AM: 0.5 uM, Mitomycin C: 20 uM) in MDR1-expressing NIH-3T3 cells; conditions: mouse, nih3t3, 20 µM
[10] = target: T1, ATP-dependent translocase ABCB1; test: TP_TRANSPORTER: increase in Calcein-AM intracellular accumulation (Calcein-AM: 0.5 uM, o-Amsacrine: 5 uM) in MDR1-expressing NIH-3T3 cells; conditions: mouse, nih3t3, 5 µM
[11] = target: T1, ATP-dependent translocase ABCB1; test: TP_TRANSPORTER: increase in Calcein-AM intracellular accumulation (Calcein-AM: 0.5 uM, Rapamycin: 20 uM) in MDR1-expressing NIH-3T3 cells; conditions: mouse, nih3t3, 20 µM
[12] = target: T1, ATP-dependent translocase ABCB1; test: TP_TRANSPORTER: increase in Calcein-AM intracellular accumulation (Calcein-AM: 0.5 uM, Ivermectin: 20 uM) in MDR1-expressing NIH-3T3 cells; conditions: mouse, nih3t3, 20 µM
[13] = target: T1, ATP-dependent translocase ABCB1; test: TP_TRANSPORTER: increase in Calcein-AM intracellular accumulation (Calcein-AM: 0.5 uM, m-Amsacrine: 5 uM) in MDR1-expressing NIH-3T3 cells; conditions: mouse, nih3t3, 5 µM
[14] = target: T1, ATP-dependent translocase ABCB1; test: TP_TRANSPORTER: increase in Calcein-AM intracellular accumulation (Calcein-AM: 0.5 uM, Mibefradil: 18 uM) in MDR1-expressing NIH-3T3 cells; conditions: mouse, nih3t3, 18 µM
[15] = target: T1, ATP-dependent translocase ABCB1; test: TP_TRANSPORTER: increase in Calcein-AM intracellular accumulation (Calcein-AM: 0.5 uM, Actinomycin D: 40 uM) in MDR1-expressing NIH-3T3 cells; conditions: mouse, nih3t3, 40 µM

T1 sequence (P08183 whole entry): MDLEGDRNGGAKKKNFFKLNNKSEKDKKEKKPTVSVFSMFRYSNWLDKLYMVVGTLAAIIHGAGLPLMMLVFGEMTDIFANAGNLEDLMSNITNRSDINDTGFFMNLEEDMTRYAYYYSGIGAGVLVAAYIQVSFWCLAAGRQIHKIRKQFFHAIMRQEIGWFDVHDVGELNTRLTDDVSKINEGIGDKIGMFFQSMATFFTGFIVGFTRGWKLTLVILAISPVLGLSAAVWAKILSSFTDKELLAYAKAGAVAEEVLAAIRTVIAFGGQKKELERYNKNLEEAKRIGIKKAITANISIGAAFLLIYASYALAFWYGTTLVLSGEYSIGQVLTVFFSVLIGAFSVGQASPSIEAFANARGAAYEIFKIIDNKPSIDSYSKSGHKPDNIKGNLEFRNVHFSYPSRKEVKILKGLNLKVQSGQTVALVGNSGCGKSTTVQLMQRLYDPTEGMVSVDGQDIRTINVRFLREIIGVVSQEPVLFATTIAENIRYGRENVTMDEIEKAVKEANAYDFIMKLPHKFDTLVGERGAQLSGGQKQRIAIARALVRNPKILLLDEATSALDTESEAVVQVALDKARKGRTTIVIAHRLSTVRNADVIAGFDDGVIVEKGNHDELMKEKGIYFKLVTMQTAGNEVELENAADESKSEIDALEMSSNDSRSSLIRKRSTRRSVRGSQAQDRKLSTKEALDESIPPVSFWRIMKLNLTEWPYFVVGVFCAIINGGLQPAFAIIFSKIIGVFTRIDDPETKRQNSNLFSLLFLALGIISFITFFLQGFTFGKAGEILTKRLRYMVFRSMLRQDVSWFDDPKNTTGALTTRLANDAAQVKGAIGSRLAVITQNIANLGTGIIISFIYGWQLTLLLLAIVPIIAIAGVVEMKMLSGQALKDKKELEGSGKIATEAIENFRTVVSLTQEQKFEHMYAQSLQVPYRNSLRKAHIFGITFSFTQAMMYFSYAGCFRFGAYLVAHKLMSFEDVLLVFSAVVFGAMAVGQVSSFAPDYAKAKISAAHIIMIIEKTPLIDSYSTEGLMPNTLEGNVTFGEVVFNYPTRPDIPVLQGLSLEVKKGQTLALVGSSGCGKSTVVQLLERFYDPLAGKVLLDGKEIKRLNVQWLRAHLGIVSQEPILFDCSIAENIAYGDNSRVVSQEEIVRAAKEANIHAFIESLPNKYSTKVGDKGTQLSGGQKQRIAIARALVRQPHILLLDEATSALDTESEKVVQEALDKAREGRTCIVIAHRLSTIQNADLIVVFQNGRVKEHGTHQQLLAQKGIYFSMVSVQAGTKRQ

## C=C[C@H]1C[N@@]2CC[C@H]1C[C@H]2[C@H](O)c1ccnc2ccc(OC)cc12 [QUININE]
[1]
  Activity: inhibitor [+]

## CCOC(=O)c1ccc(N)cc1 [BENZOCAINE]
[2]
  Activity: inhibitor [+]

## CCCCNc1ccc(C(=O)OCCN(C)C)cc1 [TETRACAINE]
[3]
  Activity: inhibitor [+]

## O=c1c(O)c(-c2ccccc2)oc2cc(O)cc(O)c12 [GALANGIN]
[4]
  Activity: inhibitor [+]

## CC(C)C[C@@H](NC(=O)[C@H](C)NC(=O)CNC(=O)[C@@H](NC=O)C(C)C)C(=O)N[C@@H](C)C(=O)N[C@@H](C(=O)N[C@H](C(=O)N[C@@H](C(=O)N[C@@H](Cc1c[nH]c2ccccc12)C(=O)N[C@H](CC(C)C)C(=O)N[C@@H](Cc1c[nH]c2ccccc12)C(=O)N[C@H](CC(C)C)C(=O)N[C@@H](Cc1c[nH]c2ccccc12)C(=O)N[C@H](CC(C)C)C(=O)N[C@@H](Cc1c[nH]c2ccccc12)C(=O)NCCO)C(C)C)C(C)C)C(C)C [GRAMICIDIN D] (For-VGA[dL]A[dV]V[dV]W[dL]W[dL]W[dL]W-NHCH2CH2OH)
[5]
  Activity: is not an inhibitor [-]

## CC(C)NCC(O)COc1cccc2ccccc12 (stereo not given) [PROPRANOLOL]
[6]
  Activity: inhibitor [+]

## CC(C)[C@@H]1NC(=O)[C@H](C)OC(=O)[C@@H](C(C)C)NC(=O)[C@@H](C(C)C)OC(=O)[C@H](C(C)C)NC(=O)[C@H](C)OC(=O)[C@@H](C(C)C)NC(=O)[C@@H](C(C)C)OC(=O)[C@H](C(C)C)NC(=O)[C@H](C)OC(=O)[C@@H](C(C)C)NC(=O)[C@@H](C(C)C)OC1=O [VALINOMYCIN]
[7]
  Activity: inhibitor [+]

## C[C@]12C=CC(=O)C=C1CC[C@@H]1[C@@H]2C(=O)C[C@@]2(C)[C@H]1CC[C@]2(O)C(=O)CO [PREDNISONE]
[8]
  Activity: inhibitor [+]

## CO[C@@]12[C@H](COC(N)=O)C3=C(C(=O)C(C)=C(N)C3=O)N1C[C@@H]1N[C@@H]12 [MITOMYCIN]
[9]
  Activity: is not an inhibitor [-]

## COc1cc(Nc2c3ccccc3nc3ccccc23)ccc1NS(C)(=O)=O [o-Amsacrine]
[10]
  Activity: inhibitor [+]

## CO[C@H]1C[C@@H]2CC[C@@H](C)[C@@](O)(O2)C(=O)C(=O)N2CCCC[C@H]2C(=O)O[C@H]([C@H](C)C[C@@H]2CC[C@@H](O)[C@H](OC)C2)CC(=O)[C@H](C)/C=C(\C)[C@@H](O)[C@@H](OC)C(=O)[C@H](C)C[C@H](C)/C=C/C=C/C=C/1C [SIROLIMUS]
[11]
  Activity: inhibitor [+]

## IVERMECTIN
[12]
  Activity: inhibitor [+]

## COc1cc(NS(C)(=O)=O)ccc1Nc1c2ccccc2nc2ccccc12 [AMSACRINE]
[13]
  Activity: inhibitor [+]

## COCC(=O)O[C@]1(CCN(C)CCCc2nc3ccccc3[nH]2)CCc2cc(F)ccc2[C@@H]1C(C)C [MIBEFRADIL]
[14]
  Activity: inhibitor [+]

## Cc1c2oc3c(C)ccc(C(=O)N[C@@H]4C(=O)N[C@H](C(C)C)C(=O)N5CCC[C@H]5C(=O)N(C)CC(=O)N(C)[C@@H](C(C)C)C(=O)O[C@@H]4C)c3nc-2c(C(=O)N[C@@H]2C(=O)N[C@H](C(C)C)C(=O)N3CCC[C@H]3C(=O)N(C)CC(=O)N(C)[C@@H](C(C)C)C(=O)O[C@@H]2C)c(N)c1=O [DACTINOMYCIN] (I: T[dV]P[Sar][NMeV] / II: T[dV]P[Sar][NMeV]; ester I:1-I:C, II:1-II:C; linker I:N-II:N via Actinocin(9to1))
[15]
  Activity: inhibitor [+]
